Data reported in patent US20140303092A1 (CHIMERIX, INC., priority 2011, published 2014).

Assay: Study HDP-CDV-201: safety and tolerability (adverse events, laboratory abnormalities, discontinuations)
Type: in vivo, human (adult allogeneic HSCT recipients)
Description: Clinical Studies of HDP-CDV were performed and described in detail in the following Examples. For example, HDP-CDV-201 is a placebo-controlled, dose-escalating trial in HSCT CMV (R+) recipients, evaluating the ability of HDP-CDV to prevent or control CMV infection was carried out. Five cohorts were established in which participants or subjects received either placebo or the HDP-CDV orally, in doses ranging from 40 mg weekly (QW) to 200 mg twice weekly (BIW). Subjects who were post-HSCT were enrolled at the time of engraftment and randomized to HDP-CDV or placebo (3 to 1 ratio) and received blinded therapy until approximately 100 day post-transplantation. HDP-CDV doses were 40 mg QW, 100 mg QW, 200 mg QW, 200 mg BIW and 100 mg BIW. Escalation to the next dose was decided by the data monitoring committee after review of the safety data from the previous Cohort. Subjects who developed CMV disease or CMV infection requiring pre-emptive therapy with local standard of care were discontinued from blinded therapy and followed for 4 weeks. Subjects who completed treatment with blinded therapy were followed for 8 weeks post-therapy.
Data from Study HDP-CDV-201 also provided characterization of the safety and tolerability profile of HDP-CDV when administered for the prevention or control of CMV infection in high risk (R^+) post-HSCT adult subjects.
The Safety population (SAFETY) included all randomized subjects who took at least one dose of study treatment. This population was used to summarize safety outcomes based on the treatment actually received, in cases where a subject was treated contrary to the randomization schedule.
The safety and tolerability profile of HDP-CDV, including subject demographics and Baseline characteristics; the AE profile; and laboratory abnormalities of interest were analyzed in the cohorts followed in this investigation.
Subjects completing the treatment period received a full course of study medication; those completing the entire study attended visits through 8 weeks of follow up. Subjects who discontinued treatment may have done so for protocol specified reasons (e.g. development of clinically significant CMV infection requiring preemptive treatment with excluded anti-CMV medications) or for other reasons (e.g., withdrawal, adverse events, loss to follow-up). The disposition of subjects in Study HDP-CDV-201 during the double-blind, placebo-controlled treatment period (through Week 11) is listed by dosing Cohort in TABLE 23.
Adverse events were examined by severity to ensure that all safety signals were identified in this study population. Because of the frequency of events in HSCT recipients, particular attention was given to evaluation of Grade 3 […], 4 (severe), and 5 (fatal) adverse events.
Only those preferred terms for which at least one Grade 3 or higher event was experienced in any treatment group are listed. Cytomegalovirus-related AEs are excluded from this analysis.
HDP-CDV is a lipid conjugate of CDV. Because CDV is known to have adverse effects on renal function and bone marrow, decreased GFR and persistent neutropenia were identified as AEs of special interest. Key renal and hematological (TABLE 30) laboratory parameters were measured and listed below by Study HDP-CDV-201 treatment groups. TABLE 30 includes abnormal levels of serum creatinine, neutrophils, platelets, WBCs, and hemoglobin and includes data at Screening and during the treatment period.
A common metric for unit based dosing of medications is by weight (mg/kg). When the distribution of weights was examined for all subjects participating in the study, the median was 78 kg and the lower 25th percentile weight was approximately 65 kg, which translates to a cut-off of ˜3 mg/kg for a 200 mg total weekly dose. Based upon this approach, a cut-off of 3 mg/kg was used to assess the frequency of diarrhea and associated GI AEs reported for the subjects in Cohorts 3 or 4a (TABLE 40).

[1] = Cohort 3, 200 mg QW, through Week 11

CCCCCCCCCCCCCCCCOCCCOP(=O)(O)COC(CO)Cn1ccc(N)nc1=O (stereo not drawn) [HDP-CDV]
11 (28.2%) n (%): TEAE Nausea (Cohort 3, 200 mg QW, N = 39)
6 (15.4%) n (%): TEAE Vomiting (Cohort 3, 200 mg QW, N = 39)
8 (57.1%): TEAE Diarrhea Overall Frequency, subjects (Cohort 3, 200 QW >3 mg/kg)
18 (46.2%) n (%): Subjects completed treatment [1]
1 (4.0%): TEAE Abdominal pain Grade 2, subjects (Cohort 3, 200 QW ≦3 mg/kg) | TEAE Diarrhea Grade 2, subjects (Cohort 3, 200 QW ≦3 mg/kg) | TEAE Diarrhea Grade 3, subjects (Cohort 3, 200 QW ≦3 mg/kg) | TEAE Hypokalaemia Grade 2, subjects (Cohort 3, 200 QW ≦3 mg/kg) | TEAE Hypokalaemia, subjects (Cohort 3, 200 QW ≦3 mg/kg) | TEAE Nausea Grade 3, subjects (Cohort 3, 200 QW ≦3 mg/kg) | TEAE Vomiting Grade 2, subjects (Cohort 3, 200 QW ≦3 mg/kg) | TEAE Vomiting Grade 3, subjects (Cohort 3, 200 QW ≦3 mg/kg)
5 (20%): TEAE Diarrhea Overall Frequency, subjects (Cohort 3, 200 QW ≦3 mg/kg)
2 (5.1%): Dyspepsia leading to study drug withdrawal (Cohort 3, 200 mg QW, N = 39)
8 (32%): TEAE Nausea Overall Frequency, subjects (Cohort 3, 200 QW ≦3 mg/kg)
21 (53.8%) n (%): Subjects who permanently discontinued treatment [1]
1 (7.1%): TEAE Abdominal pain Grade 3, subjects (Cohort 3, 200 QW >3 mg/kg) | TEAE Diarrhea Grade 3, subjects (Cohort 3, 200 QW >3 mg/kg) | TEAE Hypokalaemia Grade 2, subjects (Cohort 3, 200 QW >3 mg/kg) | TEAE Nausea Grade 2, subjects (Cohort 3, 200 QW >3 mg/kg) | Abnormal ALT >3-5x ULN, Any Time Between Week 2 and Week 10, subjects (Cohort 3, >3.0 mg/kg/wk)
4 (10.3%) n (%): TEAE Neutropenia (Cohort 3, 200 mg QW, N = 39)
0 n (%): TEAE Acute Myeloid Leukemia recurrent (Cohort 3, 200 mg QW, N = 39) | TEAE Acute Renal Failure (Cohort 3, 200 mg QW, N = 39) | TEAE Blood lactate dehydrogenase increased (Cohort 3, 200 mg QW, N = 39) | TEAE Gamma-glutamyltransferase increased (Cohort 3, 200 mg QW, N = 39) | TEAE Generalized oedema (Cohort 3, 200 mg QW, N = 39) | TEAE Hypocalcaemia (Cohort 3, 200 mg QW, N = 39) | TEAE Pneumonia (Cohort 3, 200 mg QW, N = 39) | TEAE Renal Failure (Cohort 3, 200 mg QW, N = 39) | TEAE Thrombocytopenia (Cohort 3, 200 mg QW, N = 39)
3 (7.7%): All AEs, Grade 5 (deaths) (Cohort 3, 200 mg QW, N = 39, entire study duration)
3 (12%): TEAE Abdominal pain Overall Frequency, subjects (Cohort 3, 200 QW ≦3 mg/kg) | TEAE Nausea Grade 2, subjects (Cohort 3, 200 QW ≦3 mg/kg)
3 (7.7%) n (%): TEAE Anxiety (Cohort 3, 200 mg QW, N = 39) | TEAE Creatinine increased (Cohort 3, 200 mg QW, N = 39) | TEAE Decreased appetite (Cohort 3, 200 mg QW, N = 39) | TEAE Hyperbilirubinaemia (Cohort 3, 200 mg QW, N = 39) | TEAE Oedema peripheral (Cohort 3, 200 mg QW, N = 39)
13 (33.3%) n (%): TEAE Acute GVHD (Cohort 3, 200 mg QW, N = 39) | TEAE Diarrhoea (Cohort 3, 200 mg QW, N = 39)
2 (14.3%): TEAE Abdominal pain Overall Frequency, subjects (Cohort 3, 200 QW >3 mg/kg) | TEAE Vomiting Overall Frequency, subjects (Cohort 3, 200 QW >3 mg/kg)
15 (38.5%): All AEs leading to withdrawal (Cohort 3, 200 mg QW, N = 39)
6 (15.4%): TEAE Vomiting Overall Frequency, subjects (Cohort 3, 200 mg QW)
3 (21.4%): TEAE Nausea Overall Frequency, subjects (Cohort 3, 200 QW >3 mg/kg)
7 (17.9%) n (%): TEAE Cytomegalovirus viremia (Cohort 3, 200 mg QW, N = 39) | TEAE Hyponatraemia (Cohort 3, 200 mg QW, N = 39) | TEAE Pyrexia (Cohort 3, 200 mg QW, N = 39)
0: Total Bilirubin (Screening) >1-[…] ULN, subjects (Cohort 3, 200 mg QW) | Total Bilirubin (Screening) >1.5-3 × ULN, subjects (Cohort 3, 200 mg QW) | Total Bilirubin (Screening) >3-10 × ULN, subjects (Cohort 3, 200 mg QW) | Total Bilirubin (Screening) >10 × ULN, subjects (Cohort 3, 200 mg QW) | Total Bilirubin (any time during therapy) >3-10 × ULN, subjects (Cohort 3, 200 mg QW) | Total Bilirubin (any time during therapy) >10 × ULN, subjects (Cohort 3, 200 mg QW) | TEAE Abdominal pain Grade 2, subjects (Cohort 3, 200 QW >3 mg/kg) | TEAE Abdominal pain Grade 4, subjects (Cohort 3, 200 QW >3 mg/kg) | TEAE Abdominal pain Grade 5, subjects (Cohort 3, 200 QW >3 mg/kg) | TEAE Diarrhea Grade 4, subjects (Cohort 3, 200 QW >3 mg/kg) | TEAE Diarrhea Grade 5, subjects (Cohort 3, 200 QW >3 mg/kg) | TEAE Hypokalaemia Grade 3, subjects (Cohort 3, 200 QW >3 mg/kg) | TEAE Hypokalaemia Grade 4, subjects (Cohort 3, 200 QW >3 mg/kg) | TEAE Hypokalaemia Grade 5, subjects (Cohort 3, 200 QW >3 mg/kg) | TEAE Nausea Grade 3, subjects (Cohort 3, 200 QW >3 mg/kg) | TEAE Nausea Grade 4, subjects (Cohort 3, 200 QW >3 mg/kg) | TEAE Nausea Grade 5, subjects (Cohort 3, 200 QW >3 mg/kg) | TEAE Vomiting Grade 2, subjects (Cohort 3, 200 QW >3 mg/kg) | TEAE Vomiting Grade 3, subjects (Cohort 3, 200 QW >3 mg/kg) | TEAE Vomiting Grade 4, subjects (Cohort 3, 200 QW >3 mg/kg) | TEAE Vomiting Grade 5, subjects (Cohort 3, 200 QW >3 mg/kg) | TEAE Abdominal pain Grade 3, subjects (Cohort 3, 200 QW ≦3 mg/kg) | TEAE Abdominal pain Grade 4, subjects (Cohort 3, 200 QW ≦3 mg/kg) | TEAE Abdominal pain Grade 5, subjects (Cohort 3, 200 QW ≦3 mg/kg) | TEAE Diarrhea Grade 4, subjects (Cohort 3, 200 QW ≦3 mg/kg) | TEAE Diarrhea Grade 5, subjects (Cohort 3, 200 QW ≦3 mg/kg) | TEAE Hypokalaemia Grade 3, subjects (Cohort 3, 200 QW ≦3 mg/kg) | TEAE Hypokalaemia Grade 4, subjects (Cohort 3, 200 QW ≦3 mg/kg) | TEAE Hypokalaemia Grade 5, subjects (Cohort 3, 200 QW ≦3 mg/kg) | TEAE Nausea Grade 4, subjects (Cohort 3, 200 QW ≦3 mg/kg) | TEAE Nausea Grade 5, subjects (Cohort 3, 200 QW ≦3 mg/kg) | TEAE Vomiting Grade 4, subjects (Cohort 3, 200 QW ≦3 mg/kg) | TEAE Vomiting Grade 5, subjects (Cohort 3, 200 QW ≦3 mg/kg)
2 (5.1%) n (%): TEAE ALT increased (Cohort 3, 200 mg QW, N = 39) | TEAE Back Pain (Cohort 3, 200 mg QW, N = 39) | TEAE Dysgeusia (Cohort 3, 200 mg QW, N = 39) | TEAE GI Reflux Disease (Cohort 3, 200 mg QW, N = 39) | TEAE Increased leukocytosis (Cohort 3, 200 mg QW, N = 39) | TEAE Liver function test abnormal (Cohort 3, 200 mg QW, N = 39) | TEAE Oral Candidiasis (Cohort 3, 200 mg QW, N = 39) | TEAE Tremor (Cohort 3, 200 mg QW, N = 39)
3 (7.9%): Total Bilirubin (any time during therapy) >1.5-3 × ULN, subjects (Cohort 3, 200 mg QW)
4 (28.6%): TEAE Diarrhea Grade 2, subjects (Cohort 3, 200 QW >3 mg/kg) | TEAE Hypokalaemia, subjects (Cohort 3, 200 QW >3 mg/kg)
5 (12.8%) n (%): TEAE Abdominal pain (Cohort 3, 200 mg QW, N = 39) | TEAE Fatigue (Cohort 3, 200 mg QW, N = 39) | TEAE Hypokalaemia (Cohort 3, 200 mg QW, N = 39) | TEAE Insomnia (Cohort 3, 200 mg QW, N = 39)
1 (2.6%): Total Bilirubin (any time during therapy) >1-[…] ULN, subjects (Cohort 3, 200 mg QW) | Diarrhoea leading to study drug withdrawal (Cohort 3, 200 mg QW, N = 39)
4 (16%): TEAE Vomiting Overall Frequency, subjects (Cohort 3, 200 QW ≦3 mg/kg)
0%: Abdominal pain leading to study drug withdrawal (Cohort 3, 200 mg QW, N = 39) | Nausea leading to study drug withdrawal (Cohort 3, 200 mg QW, N = 39) | Vomiting leading to study drug withdrawal (Cohort 3, 200 mg QW, N = 39)
1 (2.6%) n (%): TEAE AST increased (Cohort 3, 200 mg QW, N = 39) | TEAE Abdominal pain, Upper (Cohort 3, 200 mg QW, N = 39) | TEAE Arthralgias (Cohort 3, 200 mg QW, N = 39) | TEAE Hyperglycaemia (Cohort 3, 200 mg QW, N = 39) | TEAE Hyperkalemia (Cohort 3, 200 mg QW, N = 39) | TEAE Malnutrition (Cohort 3, 200 mg QW, N = 39) | TEAE Recurrent flatulence (Cohort 3, 200 mg QW, N = 39) | TEAE Staphylococcal Bacteremia (Cohort 3, 200 mg QW, N = 39)
